Assay results taken from PMC5733700 (Bioorganic & medicinal chemistry, 2017).

Experiments:
[1] = biological target: BRD2-BD1 (74–194) (Homo sapiens, UniProt P25440); test: Isothermal titration calorimetry; type: binding; details: 15 °C, no DMSO in buffer
[2] = biological target: BRD2-BD2 (348–455) (Homo sapiens, UniProt P25440); test: Isothermal titration calorimetry; type: binding; details: 15 °C, no DMSO in buffer
[3] = test system: BJ cells; test: Non-specific cytotoxicity, BJ control cell line; type: cell-based; details: control immortalized fibroblast cell line; 3 days exposure
[4] = test system: HEK293 cells; test: Non-specific cytotoxicity, HEK293 control cell line; type: cell-based; details: control embryonic kidney cell line; 3 days exposure
[5] = test system: HEPG2 cells; test: Non-specific cytotoxicity, HEPG2 control cell line; type: cell-based; details: control hepatocarcinoma cell line; 3 days exposure

Chain of BRD2-BD1 (74–194) (P25440 74-194): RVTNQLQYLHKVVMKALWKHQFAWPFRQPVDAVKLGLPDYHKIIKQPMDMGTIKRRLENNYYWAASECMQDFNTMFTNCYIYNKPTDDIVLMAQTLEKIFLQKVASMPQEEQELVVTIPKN
Chain of BRD2-BD2 (348–455) (P25440 348-455): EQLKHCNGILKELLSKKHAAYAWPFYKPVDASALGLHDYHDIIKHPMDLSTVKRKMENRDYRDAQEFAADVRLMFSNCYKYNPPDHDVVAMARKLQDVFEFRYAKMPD

Structure (SMILES) | ITC ΔH, BRD2 BD1 [1] [kcal/mol] | ITC −TΔS, BRD2 BD1 [1] [kcal/mol] | ITC ΔH, BRD2 BD2 [2] [kcal/mol] | ITC −TΔS, BRD2 BD2 [2] [kcal/mol] | ITC ΔG, BRD2 BD1 [1] [kcal/mol] | Cytotoxicity EC50, BJ [3] | Cytotoxicity EC50, HEK293 [4] | Cytotoxicity EC50, HEPG2 [5] | ITC ΔG, BRD2 BD2 [2] [kcal/mol]
Cc1sc2c(c1C)C(c1ccc(Cl)cc1)=N[C@@H](CC(=O)OC(C)(C)C)c1nnc(C)n1-2 [Compound 1, (+)-JQ1, reference compound] | -4.9 | -4.39 | -1.47 | -7.83 |  |  |  |  | 
CC(=O)N1c2ccc(-c3ccco3)cc2[C@H](NC(=O)OC(C)C)C[C@@H]1C [Compound 9, Isopropyl ((2S,4R)-1-acetyl-6-(furan-2-yl)-2-methyl-1,2,3,4-tetrahydroquinolin-4-yl)carbamate] | -7.27 | -0.2 |  |  | -7.47 | did not exhibit cytotoxicity at the highest concentrations tested | did not exhibit cytotoxicity at the highest concentrations tested | did not exhibit cytotoxicity at the highest concentrations tested | 
CC(=O)N1c2ccc(-c3cccs3)cc2[C@H](NC(=O)OC(C)C)C[C@@H]1C [Compound 10, Isopropyl ((2S,4R)-1-acetyl-2-methyl-6-(thiophen-2-yl)-1,2,3,4-tetrahydroquinolin-4-yl)carbamate] | -8.27 | -1.25 | -7.18 | -2.94 | -9.52 |  |  |  | -10.12
CC(=O)N1c2ccc(-c3ccc[nH]3)cc2[C@H](NC(=O)OC(C)C)C[C@@H]1C [Compound 11, Isopropyl ((2S,4R)-1-acetyl-2-methyl-6-(1H-pyrrol-2-yl)-1,2,3,4-tetrahydroquinolin-4-yl)carbamate] | -6.9 | -2.18 | -6.89 | -2.92 | -9.08 |  |  |  | -9.82
CC(=O)N1c2ccc(-c3ccoc3)cc2[C@H](NC(=O)OC(C)C)C[C@@H]1C [Compound 12, Isopropyl ((2S,4R)-1-acetyl-6-(furan-3-yl)-2-methyl-1,2,3,4-tetrahydroquinolin-4-yl)carbamate] | -9.9 | 0.94 | -6.31 | -2.29 | -8.96 |  |  |  | -8.61
CC(=O)N1c2ccc(-c3ccsc3)cc2[C@H](NC(=O)OC(C)C)C[C@@H]1C [Compound 13, Isopropyl ((2S,4R)-1-acetyl-2-methyl-6-(thiophen-3-yl)-1,2,3,4-tetrahydroquinolin-4-yl)carbamate] | -7.69 | -1.74 | -6.92 | -3.33 | -9.43 |  |  |  | -10.25
CC(=O)N1c2ccc(-c3cc[nH]c3)cc2[C@H](NC(=O)OC(C)C)C[C@@H]1C [Compound 14, Isopropyl ((2S,4R)-1-acetyl-2-methyl-6-(1H-pyrrol-3-yl)-1,2,3,4-tetrahydroquinolin-4-yl)carbamate] | -7.33 | -1.95 | -7.01 | -3.32 | -9.28 |  |  |  | -10.15
